Assay results as given in US11267824B2, “Inhibitors of indoleamine 2,3-dioxygenase and/or tryptophan 2,3-dioxygenase” (IDORSIA PHARMACEUTICALS LTD, priority 2017, dated 2022).

Legend:
[1] = target: Recombinant full-length human IDO1 (Homo sapiens (Human), UniProt P14902); assay: IDO1 enzymatic assay (IDO inhibitory activity); assay type: biochemical; conditions: 2 nM enzyme, 5 μM L-tryptophan, pH6.5, 30 min pre-incubation, NFK quantified by LCMS; mean values if measured multiple times; read-out: hIDO activity (IC50 in nM)
Chain of Recombinant full-length human IDO1 (P14902 whole entry): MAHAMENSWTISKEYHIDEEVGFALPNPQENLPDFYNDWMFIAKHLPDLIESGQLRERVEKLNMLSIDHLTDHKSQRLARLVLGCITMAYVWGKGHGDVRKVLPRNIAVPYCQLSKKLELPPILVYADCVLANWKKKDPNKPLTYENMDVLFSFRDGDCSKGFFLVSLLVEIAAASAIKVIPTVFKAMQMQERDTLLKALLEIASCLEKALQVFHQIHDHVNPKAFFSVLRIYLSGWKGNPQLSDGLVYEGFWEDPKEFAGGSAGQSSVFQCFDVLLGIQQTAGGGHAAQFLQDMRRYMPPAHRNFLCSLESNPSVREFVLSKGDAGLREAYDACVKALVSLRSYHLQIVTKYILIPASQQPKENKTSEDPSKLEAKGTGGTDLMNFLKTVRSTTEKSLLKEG
Procedure, shortened: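 N-His-tagged enzyme from E. coli at 2 nM in 37.5 mM phosphate pH6.5 with ascorbate, methylene blue, catalase; compounds 10 μM–0.5 nM, 0.6% DMSO, pre-incubated 30 min RT, then 5 μM L-tryptophan for 30 min RT. NFK quantified by LCMS against d5-tryptophan; IC50 from duplicate four-parameter fit, means where repeated.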

[2] = target: Recombinant human TDO comprising amino acids 19-407 (Homo sapiens (Human), UniProt P48775); assay: TDO2 enzymatic assay (TDO inhibitory activity); assay type: biochemical; conditions: 15 nM enzyme, 200 μM L-tryptophan, pH7, 30 min pre-incubation, NFK quantified by LCMS; mean values if measured multiple times; read-out: hTDO activity (IC50 in nM)
Chain of Recombinant human TDO comprising amino acids 19-407 (P48775 19-406 limits assumed): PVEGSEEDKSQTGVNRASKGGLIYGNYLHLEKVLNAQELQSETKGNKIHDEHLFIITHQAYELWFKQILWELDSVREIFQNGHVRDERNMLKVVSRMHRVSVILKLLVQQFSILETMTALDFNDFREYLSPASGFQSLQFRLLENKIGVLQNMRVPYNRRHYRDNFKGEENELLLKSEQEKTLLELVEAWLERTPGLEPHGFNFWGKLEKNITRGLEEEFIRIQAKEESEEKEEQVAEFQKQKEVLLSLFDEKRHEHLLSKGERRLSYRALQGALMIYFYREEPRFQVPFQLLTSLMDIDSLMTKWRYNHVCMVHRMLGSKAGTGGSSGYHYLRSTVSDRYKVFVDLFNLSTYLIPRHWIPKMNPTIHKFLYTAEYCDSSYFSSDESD
Procedure, shortened: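 His-tagged enzyme (15 nM, E. coli-expressed) in pH 7 phosphate buffer with ascorbate, catalase, BSA, Tween 20, 0.6% DMSO; 30 min RT pre-incubation with compound (10 μM–0.5 nM), then 200 μM L-tryptophan for 30 min RT. N′-formylkynurenine quantified by LCMS against deuterated tryptophan; IC50 by four-parameter fit, duplicates.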

IC50 [1] [nM]	IC50 [2] [nM]	Structure (SMILES)
33.2	579	CC(C)C1(C)CCC(C(O)c2c(C3CC3)sc3cncn23)C1 (stereo not shown) [Example 136, (2-Cyclopropyl-imidazo[5,1-b]thiazol-3-yl)-(3-isopropyl-3-methyl-cyclopentyl)-methanol]
18.7	151	CC1(C)CCC(C)(C(O)c2c(C3CC3)sc3cncn23)C1 (stereo not shown) [Example 139, (2-Cyclopropyl-imidazo[5,1-b]thiazol-3-yl)-(1,3,3-trimethyl-cyclopentyl)-methanol]
23.9	15.8	Cc1sc2cncn2c1[C@@H](O)C1(C)CCCC1 [Example 140a, (S)-(1-Methyl-cyclopentyl)-(2-methyl-imidazo[5,1-b]thiazol-3-yl)-methanol]
81.2	412	Cc1sc2cncn2c1C(O)C1CCC(C)(C)C1 (stereo not shown) [Example 141, (3,3-Dimethyl-cyclopentyl)-(2-methyl-imidazo[5,1-b]thiazol-3-yl)-methanol]
172	962	CC[C@H](C)c1sc2cncn2c1C(O)C1CCCCC1 (stereo partly drawn) [Example 185, [2-((S)-sec-Butyl)-imidazo[5,1-b]thiazol-3-yl]-cyclohexyl-methanol]
